One assay deals with T1, 5-lipoxygenase (Rattus norvegicus, UniProt P12527).
T1 construct: endogenous in cells; host or cells: RBL-1 cells (rat basophilic leukemia), intact
T1 sequence (P12527 1-673): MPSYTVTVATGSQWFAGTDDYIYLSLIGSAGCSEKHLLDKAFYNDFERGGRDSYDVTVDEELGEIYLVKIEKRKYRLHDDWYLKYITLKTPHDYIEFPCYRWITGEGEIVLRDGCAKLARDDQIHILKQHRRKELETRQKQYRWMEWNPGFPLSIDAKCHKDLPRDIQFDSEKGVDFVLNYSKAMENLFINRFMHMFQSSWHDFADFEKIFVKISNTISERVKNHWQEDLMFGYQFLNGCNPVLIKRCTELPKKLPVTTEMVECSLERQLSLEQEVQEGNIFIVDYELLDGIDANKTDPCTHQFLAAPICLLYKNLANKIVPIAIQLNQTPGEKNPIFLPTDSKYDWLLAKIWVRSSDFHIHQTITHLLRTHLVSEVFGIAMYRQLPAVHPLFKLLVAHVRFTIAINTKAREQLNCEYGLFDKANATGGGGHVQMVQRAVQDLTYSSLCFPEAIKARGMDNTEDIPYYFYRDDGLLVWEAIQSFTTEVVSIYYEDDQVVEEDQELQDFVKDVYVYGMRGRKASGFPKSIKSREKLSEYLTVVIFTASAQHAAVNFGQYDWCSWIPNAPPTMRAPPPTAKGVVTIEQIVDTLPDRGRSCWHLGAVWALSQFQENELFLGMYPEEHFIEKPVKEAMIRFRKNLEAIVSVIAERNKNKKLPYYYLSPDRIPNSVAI
Description: Inhibition of 5-lipoxygenase in RBL-1-cells. It is filed as cell-based. As to conditions: 20 μM [14C]-arachidonic acid, 20 μM A 23 187. The protocol:
To determine the inhibition of 5-lipoxygenase rat basophilic leukemia cells (RBL-1-cells) were cultured in vitro, harvested by centrifugation, washed with 50 mM potassium phosphate buffer of pH 7.4, and then suspended in this buffer at 1×10^7 cells/mi. To 1 ml each of this suspension there was added indomethacin (10 μM) and calcium chloride (2 mM), and then the mixture was incubated in the absence or presence of a compound according to the invention in a concentration range of from 0.1 μM to 100 μM for 3 minutes and thereafter with 20 μM of [^14 C]-arachidonic acid and 20 μM of the calcium ionophore A 23 187 for 10 minutes. The reaction was stopped by adding 20 μl of glacial acetic acid, and then the mixture was extracted with ethyl acetate to isolate the metabolites of arachidonic acid formed by the enzymatic action of 5-lipoxygenase. These were separated by thin layer chromatography using a solvent mixture known to be suitable for lipoxygenase products [c.f. Jakschik et al., Biochem. Biophys. Res. Commun. 102, 624 (1981)].
The distribution of the radioactivity among the various metabolites of arachidonic acid was measured using a TLC Linear Analyzer. By correlating the percentages of the amount of the products formed under the action of 5lipoxygenase (5-HETE, isomers of LTB4) in the absence as well as in the presence of different concentrations of compounds according to the invention, the IC50 -values, i.e. the concentrations which cause 50% inhibition of 5-lipoxygenase were determined graphically from semilogarithmic diagrams.

The test system of assay [1] is Leukotriene-Synthesis Induced by FMLP/Merthiolate of Human Polymorphonuclear Leukocytes. Description: Inhibition of leukotriene-synthesis induced by FMLP/merthiolate of human polymorphonuclear leukocytes (reversibility). Particulars: Leukocyte, human granulocytes, preincubated 5 minutes, centrifuged, resuspended, read-out: IC50-value of the reversible inhibitory action. The format is cell-based. The method, then: (§1) Human granulocytes were isolated by dextran-sedimentation and a Percoll gradient method and suspended in HBSS (Hanks buffered salt solution) at1×10^7 cells/mi. The cells were incubated in presence of a compound according to the invention or a solvent (ethanol and/or dimethyl sulfoxide) at 37° C. for 2 minutes, then with merthiolate (sodium ethylmercurithiosalicylate; 40 μM) for 2 minutes, and thereafter with FMLP (formyl-methionyl-leucylphenylalanine; 10^-7 M) for 15 minutes. After solid phase extraction the metabolites of arachidonic acid 5-HETE, LTB4, 6-trans-LTB4 -isomers, 20-OH-LTB4 and 20-COOH-LTB4 were identified by RP-HPLC [M. Haurand and L. Flohe in Biochem. Pharmacol. 38, 2129-37 (1989)].
To examine the reversibility of the inhibitory action the cells were incubated with a compound according the invention or a solvent (ethanol and/or dimethyl sulfoxide) at 37° C. for 5 minutes, centrifuged at 300×g for 5 minutes and resuspended in 2 ml HBSS. Then the cells were incubated with merthiolate (40 μM) at 37° C. for 2 minutes and thereafter with FMLP (10^-7 M) for 15 minutes. The IC50 -value of the reversible inhibitory action was 2μmolar when the compound prepared according to Example 1 was used.

For a further assay, the system named is 12-lipoxygenase. Nature of the assay: Inhibition of 12-HETE- and 5S,12S-DiHETE-synthesis induced by FMLP/merthiolate of human polymorphonuclear leukocytes and thrombocytes. As to conditions: coincubated human granulocytes and thrombocytes. It is filed as cell-based. The protocol:
as §1
Coincubations of human granulocytes and thrombocytes were carried out and investigated according to the inhibition of leukotriene-synthesis induced by FMLP/merthiolate. 12-HETE and 5S,12S-dihydroxy-HETE (5S,12S-DiHETE) were additionally included in the evaluation.

In the next assay the test system is guinea pigs. Description: Allergen-induced bronchoconstriction in guinea pigs (Konzett-Roessler). As to conditions: Cavia porcellus, po, 1 h, 60 minutes before ovalbumin, read-out: ED40-Value, inhibition of the bronchoconstriction elicited by ovalbumin. The format is in vivo, guinea pig. The protocol:
The antiasthmatic effect of compounds according to the invention was tested in anesthetized and ventilated guinea pigs. To induce an asthmatic reaction, the animals were passively sensitized by a single intraperitoneal injection of anti-ovalbumin serum. After 48 hours an asthmatic reaction was elicited by intravenous challenge with 0.2 mg/kg of ovalbumin. The immediately resulting bronchoconstriction was measured as an increase in intratracheal pressure. Effects caused by histamine, serotonin and sympathic counterreaction were eliminated by intravenous pretreatment with 2.15 mg/kg of mepyramine, 46.4 μg/kg of propranolol, 4.64 mg/kg of atropine, and 1 mg/kg of methysergide, all administered 5 minutes before challenge. Compounds according to the invention were orally administered 60 minutes before the administration of ovalbumin. The following ED40-values for the inhibition of the bronchoconstriction elicited by ovalbumin, i.e. the effective doses causing a 40% average inhibition of the bronchoconstriction, were determined: […]

pIC50: −log10 of the molar value.

The term pIC50 denotes the IC50 on a negative log10 scale, so that one unit is a factor of ten. Take `NC(=O)N(O)Cc1ccc(Oc2ccc(-n3ccnc3)cc2)cc1` [Example 1, N-hydroxy-N-[4-[4-(1H-imidazol-1-yl)phenoxy]phenylmethyl]urea]: the pIC50 (against 5-lipoxygenase; in assay [1]) was 5.70 in each case. Further, the “inhibitory action on 12-lipoxygenase” value in the assay on 12-lipoxygenase is “did not exert an inhibitory action on 12-lipoxygenase”. Also, the ED40 with guinea pigs was 9.3 mg/kg.
As for `CC(=O)N(O)Cc1ccc(Oc2ccc(-n3ccnc3)cc2)cc1` [Example 3, N-hydroxy-N-[4-[4-(1H-imidazol-1-yl)phenoxy]phenylmethyl]acetamide], the pIC50 against 5-lipoxygenase was 5.30. Besides, the ED40 in the assay with guinea pigs was 15.5 mg/kg.
